Test results from PMC10892375, “Determination of the Cannabinoid CB1 Receptor’s Positive Allosteric Modulator Binding Site through Mutagenesis Studies” (Pharmaceuticals, 2024).
“Also recorded” adds a separate entry of the source.

Assays:
Type in all cases: cell-based
WT hCB1 = target: T1, WT hCB1 (Homo sapiens, UniProt P21554); assay: pIRES G protein dissociation BRET assay, WT hCB1; conditions: for Allosteric modulation of maximal CP55940-induced G protein dissociation / Effect on the potency of CP55940-induced G protein dissociation: 10 μM allosteric ligand; for Allosteric modulation of maximal CP55940-induced G protein dissociation / Allosteric agonism: G protein dissociation in the absence of an orthosteric ligand / Effect on the potency of CP55940-induced G protein dissociation: result in words; for G protein dissociation, AUC of 10 μM compound (maximal response): 10 μM ligand alone
T1 construct: expressed in transfected cells; host or cells: HEK293
Description: (§1) Mutagenesis studies using the pIRES G protein dissociation assay were performed using human embryonic kidney 293 (HEK293) wild-type cells transiently transfected with pplss-3HA-hCB1 [31] or modified receptor. All cells were cultured in Dulbecco’s Modified Eagle’s Medium (DMEM) supplemented with 10% fetal bovine serum (FBS), grown in […] vented-cap flasks, and maintained in a 37° C incubator at 5% CO2.
(§2) Dissociation of the G protein heterotrimer, specifically Gαi1, Gβ1, and Gγ2, was investigated using a bioluminescence resonance energy transfer (BRET) assay with the pIRES biosensor first described by and adapted by.
(§3) Briefly, 3 × 10^6 WT HEK293 cells were seeded into 10 cm culture dishes (Corning, Corning, NY, USA; one dish for the control receptor and one for each modified receptor) and incubated at 37 °C for 24 h to gain 50–60% confluency. Culture medium was then replaced and transfection mixtures containing 3 μg pIRES vector and 1 μg receptor (either pplss-hCB1 or modified receptor) were prepared (4 μg total DNA). Plasmids were initially diluted in sterile Milli-Q water before being diluted in OptiMEM reduced serum medium (Thermo Fisher Scientific, Waltham, MA, USA) and combined with […] polyethylenimine (PEI)-max (1:9 DNA:PEI-max ratio) and incubated at room temperature for 20 min. Transfection mixtures were then added to cells via dropwise addition, and cells were incubated at 37 °C for 24 h. Transfected cells were lifted and plated at 50,000 cells/well into poly-d-lysine (PDL; Sigma-Aldrich) coated white 96-well CulturPlates (PerkinElmer, Waltham, MA, USA) and incubated for a further 24 h at 37 °C.
To assay, the culture medium was aspirated and cells were washed with phosphate buffered saline (PBS) and replaced with BRET assay medium (phenol red free DMEM containing 25 mM HEPES and supplemented with 1 mg/mL bovine serum albumin; BSA, MP Biomedicals, Auckland, New Zealand) for 30 min prior to drug addition (serum starve). Drugs were prepared at 10 × concentration in BRET assay medium, combined in a polypropylene V-bottom plate, and incubated at 37° C prior to drug stimulation. Coelenterazine-h (Nanolight Technology, Prolume Ltd, Pinetop, AZ, USA) was prepared at 10 × concentration in BRET assay medium (final concentration 5 μM) and dispensed to cells immediately prior to drug stimulation. Plates were transferred to the LUMIstar Omega plate reader (BMG Labtech GmbH, Ortenburg, BW, Germany) and luminescence (475 and 535 nm) was detected simultaneously in the dark with BRET1 filters for approximately 5 min to establish a baseline BRET ratio. Drugs were added to cells, plates were returned to the LUMIstar and luminescence was detected for a further 25 min. BRET ratios (475/535) were calculated in Omega MARS software v 3.32, exported, and data were analysed using GraphPad Prism v8. Baseline correction was performed using an in-built function in GraphPad Prism, subtracting vehicle BRET ratios from matched conditions. Area under the curve (AUC) analysis was performed in GraphPad Prism using an in-built function to obtain concentration response data.
All data analysis was performed using GraphPad Prism v8. Sigmoidal concentration series were generated by performing AUC analysis and fit using three-parameter nonlinear regression curves. Statistical analyses were performed using data interpolated from nonlinear regression curves using parameters derived from five independent biological replicates. Both one- and two-way repeated measures ANOVA and paired t-tests were used where appropriate (specified in-text), and posthoc tests, specified in text, were performed when significance was reached (p < 0.05). Time course data presented in this manuscript are pooled data (n = 5) and expressed as mean ± SEM. Concentration response data are representative, data expressed as mean ± SD from technical triplicates, to avoid misestimation of parameters from combined/pooled data.

hCB1 mutant Y172A^2.59 = target: T2, hCB1 mutant Y172A^2.59 (Homo sapiens, UniProt P21554, Y172A); assay: pIRES G protein dissociation BRET assay, Y172A mutant; conditions: for G protein dissociation, AUC of 10 μM compound (maximal response): 10 μM ligand alone; for Increase in the potency of CP55940-induced G protein dissociation: 10 μM allosteric ligand
T2 construct: expressed in transfected cells; host or cells: HEK293
Description: as §1
(§4) Mutants of pplss-3HA-hCB1 (WT, pEF-V4-HisA (pEF4a) construct) were generated using a modified QuikChange® (Stratagene, San Diego, CA, USA) site-directed mutagenesis approach using KAPA HiFi Hotstart Polymerase (KAPA Biosystems, Roche, Basel, Switzerland). Briefly, single-stranded primers used to modify one or two base pairs within the target amino acid using PCR were purchased from Integrated DNA Technologies (IDT, Coralville, IA, USA). All pplss-hCB1 mutants were generated using the pplss-3HA-hCB1 pEF4a as parental DNA. PCR products were generated using recommended cycling conditions and treated with Dpn1 (New England Biolabs, Ipswich, MA, USA) overnight at 37° C to digest methylated parental DNA. PCR products were electrophoresed and run on an agarose gel (1% (w.v^−1) agarose, HydraGene, Piscataway, NJ, USA) containing 0.25 μg/mL ethidium bromide (Sigma-Aldrich, St. Louis, MO, USA). Gels were run in 40 mM TRIS-acetate buffer containing […] (pH 8.3) at 100 V for 30 min, maximum current and included a 1kb+ DNA ladder (Invitrogen, Thermo Fisher Scientific, Carlsbad, CA, USA) for reference. Gels were imaged using an UVTech Alliance Q9 Mini transilluminator (UVTech Alliance, Cambridge, UK). Digested products were then used to transform NEB 5α competent E. coli cells in accordance with manufacturer’s instructions. Briefly, transformed PCR products were grown overnight on 8.5 mL Luria Broth agar plates (containing 100 μg/mL ampicillin) at 37° C. Single bacterial colonies were picked and inoculated in Luria Broth (containing 100 μg/mL ampicillin) and grown overnight in a shaking incubator at 37° C. Plasmids were then harvested and purified using a Qiagen miniprep kit (Qiagen, Hilden, Germany) and validated using sequencing (Genetics Analysis Service, University of Otago, Dunedin, New Zealand).
as §2, §3
(§5) To assay, the culture medium was aspirated and cells were washed with phosphate buffered saline (PBS) and replaced with BRET assay medium (phenol red free DMEM containing 25 mM HEPES and supplemented with 1 mg/mL bovine serum albumin; BSA, MP Biomedicals, Auckland, New Zealand) for 30 min prior to drug addition (serum starve). Drugs were prepared at 10 × concentration in BRET assay medium, combined in a polypropylene V-bottom plate, and incubated at 37° C prior to drug stimulation.

hCB1 mutant S173A^2.60 = target: T3, hCB1 mutant S173A^2.60 (Homo sapiens, UniProt P21554, S173A); assay: pIRES G protein dissociation BRET assay, S173A mutant; conditions: for G protein dissociation, AUC of 10 μM compound (maximal response): 10 μM ligand alone
T3 construct: expressed in transfected cells; host or cells: HEK293
Description: as §1, §4, §2, §3, §5

hCB1 mutant I169A^2.56 = target: T4, hCB1 mutant I169A^2.56 (Homo sapiens, UniProt P21554, I169A); assay: pIRES G protein dissociation BRET assay, I169A mutant; conditions: for G protein dissociation, AUC of 10 μM compound (maximal response): 10 μM ligand alone; for Allosteric modulation of CP55940 (PAM activity): 10 μM allosteric ligand; for Allosteric modulation of CP55940 (PAM activity) / Allosteric agonism: G protein dissociation in the absence of an orthosteric ligand: result in words; for Allosteric agonism: G protein dissociation in the absence of an orthosteric ligand: 10 μM
T4 construct: expressed in transfected cells; host or cells: HEK293
Description: as §1, §4, §2, §3, §5

[1] = 10 μM CP55940 in the presence of 10 μM ZCZ011
[2] = in the presence of 10 μM GAT228
[3] = in the presence of 10 μM GAT229
[4] = top of the curve (maximal response)

T4 sequence (P21554 whole entry I169A): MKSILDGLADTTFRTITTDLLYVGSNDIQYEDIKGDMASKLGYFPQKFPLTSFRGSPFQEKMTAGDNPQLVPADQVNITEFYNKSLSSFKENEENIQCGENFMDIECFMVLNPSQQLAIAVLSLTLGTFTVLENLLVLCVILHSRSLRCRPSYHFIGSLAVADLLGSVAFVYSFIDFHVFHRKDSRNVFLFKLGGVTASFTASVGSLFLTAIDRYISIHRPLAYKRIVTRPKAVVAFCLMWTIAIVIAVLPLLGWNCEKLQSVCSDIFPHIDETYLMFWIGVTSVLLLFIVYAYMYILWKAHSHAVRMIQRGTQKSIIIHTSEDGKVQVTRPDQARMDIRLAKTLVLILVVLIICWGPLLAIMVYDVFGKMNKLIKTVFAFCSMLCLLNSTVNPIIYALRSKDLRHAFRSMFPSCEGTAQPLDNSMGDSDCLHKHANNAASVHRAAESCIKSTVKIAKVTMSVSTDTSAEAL
T3 sequence (P21554 whole entry S173A): as the sequence (P21554 whole entry I169A) above, with A169I, S173A counted along it
T1 sequence (P21554 whole entry): as the sequence (P21554 whole entry I169A) above, with A169I counted along it
T2 sequence (P21554 whole entry Y172A): as the sequence (P21554 whole entry I169A) above, with A169I, Y172A counted along it

| Structure (SMILES) | G protein dissociation, AUC of 10 μM compound (maximal response) (hCB1 mutant Y172A^2.59) | G protein dissociation, AUC of 10 μM compound (maximal response) (hCB1 mutant S173A^2.60) | G protein dissociation, AUC of 10 μM compound (maximal response) (hCB1 mutant I169A^2.56) | Allosteric modulation of maximal CP55940-induced G protein dissociation (WT hCB1) | G protein dissociation, AUC of 10 μM compound (maximal response) (WT hCB1) | Allosteric agonism: G protein dissociation in the absence of an orthosteric ligand (WT hCB1) | Allosteric modulation of CP55940 (PAM activity) (hCB1 mutant I169A^2.56) | Allosteric agonism: G protein dissociation in the absence of an orthosteric ligand (hCB1 mutant I169A^2.56) | Effect on the potency of CP55940-induced G protein dissociation (WT hCB1) | Increase in the potency of CP55940-induced G protein dissociation (hCB1 mutant Y172A^2.59) | other results |
| --- | --- | --- | --- | --- | --- | --- | --- | --- | --- | --- | --- |
| CCCCCCC(C)(C)c1ccc([C@@H]2C[C@H](O)CC[C@H]2CCCO)c(O)c1 [CP55940] | −284.7 ± 8.4 | −146.2 ± 5.5 | −113.1 ± 11.7 | – | – | – | – | – | – | – | G protein dissociation, AUC, 10 μM CP55940 + 10 μM ZCZ011 (WT hCB1; [1]): −215.9 ± 2.9; EMAX, CP55940 + 10 μM GAT228 (WT hCB1; [2]): −194.2 ± 7.3 ∆BRET.sec; EMAX, CP55940 + 10 μM GAT229 (WT hCB1; [3]): −205.1 ± 7.8 ∆BRET.sec; EMAX, CP55940 Alone (WT hCB1; [4]): −184.1 ± 3.8 ∆BRET.sec; G protein dissociation, AUC, 10 μM CP55940 + 10 μM ZCZ011 (hCB1 mutant Y172A^2.59; [1]): −305.2 ± 5.7; EMAX, CP55940 + 10 μM GAT228 (hCB1 mutant Y172A^2.59; [2]): −298.9 ± 5.4 ∆BRET.sec; EMAX, CP55940 + 10 μM GAT229 (hCB1 mutant Y172A^2.59; [3]): −309.0 ± 3.5 ∆BRET.sec; EMAX, CP55940 Alone (hCB1 mutant Y172A^2.59; [4]): −273.2 ± 6.9 ∆BRET.sec; G protein dissociation, AUC, 10 μM CP55940 + 10 μM ZCZ011 (hCB1 mutant S173A^2.60; [1]): −186.8 ± 5.5; EMAX, CP55940 + 10 μM GAT228 (hCB1 mutant S173A^2.60; [2]): −176.1 ± 6.9 ∆BRET.sec; EMAX, CP55940 + 10 μM GAT229 (hCB1 mutant S173A^2.60; [3]): −186.4 ± 7.5 ∆BRET.sec; EMAX, CP55940 Alone (hCB1 mutant S173A^2.60; [4]): −143.0 ± 5.7 ∆BRET.sec; EMAX, CP55940 + 10 μM GAT228 (hCB1 mutant I169A^2.56; [2]): −117.0 ± 7.4 ∆BRET.sec; EMAX, CP55940 + 10 μM GAT229 (hCB1 mutant I169A^2.56; [3]): −109.7 ± 8.3 ∆BRET.sec; EMAX, CP55940 Alone (hCB1 mutant I169A^2.56; [4]): −110.7 ± 10.3 ∆BRET.sec |
| Cc1ccc2c(C(C[N+](=O)[O-])c3cccs3)c(-c3ccccc3)[nH]c2c1 (stereo not drawn) [ZCZ011, 6-Methyl-3-(2-nitro-1-(thiophen-2-yl)ethyl)-2-phenyl-1 H-indole] | −142.1 ± 14.4 | −144.2 ± 6.8 | −20.0 ± 9.0 | increased maximal CP55940-induced G protein dissociation | −167.3 ± 3.2 | increased wild-type G protein dissociation | neither allosteric ligand acted as a PAM | abolished; also recorded: substantial reduction in G protein dissociation | – | – | – |
| O=[N+]([O-])C[C@@H](c1ccccc1)c1c(-c2ccccc2)[nH]c2ccccc12 [GAT229] | −207.0 ± 7.1 | −137.3 ± 4.8 | 54.8 ± 7.5 | increased maximal CP55940-induced G protein dissociation | −148.6 ± 7.2 | increased wild-type G protein dissociation | neither allosteric ligand acted as a PAM | abolished; also recorded: inhibited constitutive G protein dissociation | Neither GAT229 nor GAT228 increased the potency | less than 0.5 log units | – |
| O=[N+]([O-])C[C@H](c1ccccc1)c1c(-c2ccccc2)[nH]c2ccccc12 [GAT228] | −133.4 ± 9.8 | −105.5 ± 7.6 | 30.0 ± 5.9 | did not alter CP55940-induced G protein dissociation | −105.7 ± 7.2 | increased wild-type G protein dissociation | – | abolished; also recorded: inhibited constitutive G protein dissociation | small but significant decrease in the potency of CP55940 | less than 0.5 log units | – |
